Laboratory results reported in patent US20260014129A1, “MITOCHONDRIAL PYRUVATE METABOLISM INHIBITORS FOR TREATING CHRONIC MYELOID LEUKEMIA” (The University Court of the University of Glasgow, priority 2022, published 2026).

Assays:
K562 cells = test: Viability (Annexin V/7AAD) and CFC assays of vector control versus PC knockout K562 cells; type: cell-based, human; conditions: 72 hours; 600 nm imatinib or 100 nm omacetaxine
Procedure: (a) Western blot of PC and loading control (tubulin) from vector control or PC knockout K562 cells. (b) Proliferation of K562 cells from A. Shown is average and SEM from 3 independent experiments. (c) Fractional labelling from ^13C6 glucose into indicated metabolites of PC knockout cells are shown (n=3) after 24 hours. Plots were generated using Autoplotter, average and SD are plotted. Statistical analyses were conducted on the m+5 fraction. An ordinary one-way ANOVA was used with Dunnett's test used to correct for multiple comparisons. (d) Cells viability was measured using Annexin V and 7AAD. Cells were either left untreated (UT) or exposed for 72 hours to 600 nm imatinib or 100 nm omacetaxine (OMA). Shown is average and SEM from 4 independent experiments. An ordinary one-way ANOVA was used with Dunnett's test used to correct for multiple comparisons. (e) Colony Forming Cell (CFC) potential of control and […] cells. Cells were either left untreated (UT) or exposed for 72 hours to 600 nm imatinib. Shown is average and SEM from 4 independent experiments. An ordinary one-way ANOVA was used with Dunnett's test used to correct for multiple comparisons. […]

K562 CML cell line = test: 13C6 glucose tracing in K562 CML cell line; type: cell-based, human; conditions: K562, several concentrations
Procedure: (§1) For conjugation of palmitate, a 20 mM stock was made in 100% EtOH. This was incubated on a shaking heater, 60° C. until the solution clarified. The palmitate was then added to 10% BSA (ultra-fatty acid free in EBSS, Roche, 03117057001) to give a palmitate:BSA ratio of 1:3 BSA. This solution was left for 15 min in water bath (37° C.), and then added to final concentration in complete medium. For cell line experiments, the medium was RPMI with 10% dialysed FBS and 1% penicillin/streptomycin. For tracing experiments 11 mM ^13C6 glucose was added to glucose-free RPMI.
(§2) Biological and technical replicates were processed through Autoplotter (56) and natural abundance was corrected for. Fraction of enrichment was calculated as m+2 and above. For CML samples treated with or without imatinib, multiple paired T-tests were conducted on Log 10 transformed values in Graphpad Prism. The correction for multiple comparisons was the two-stage step-up method of Benjamini, Krieger and Yekutieli with an FDR (Q) value of 10%. For volcano plots Log 10 FC vs Log 10 (q value) are plotted with q values>5% in red and >10% in blue. For normal vs CML comparisons, the process was the same with the exception that unpaired t-tests were used. For PC activity in normal vs CML, this is denoted by fraction m+3. For imatinib vs untreated we look at relative activity to PDH. IE., the m+3/m+2 ratio and conducted multiple t-tests with correction for multiple comparisons being the two-stage step-up method of Benjamini, Krieger and Yekutieli with an FDR (Q) value of 10%. To examine contribution to carbon pool we corrected contribution of each isotopologue by the number of carbons it contributes to a given metabolite, i.e., for glutamine contribution from m+5 is greater than m+3. Note that for cell line experiments standard deviation is shown.

CML CD34+ cells [1] = test: LC-MS steady state metabolite analysis of primary CML CD34+ cells; type: cell-based, human; conditions: nilotinib treatment, data not shown
Procedure: (§3) Cells were counted using a CASY counter with the following parameters: E-cur 7.5-22.5, N-cur 5.25-20.5. Cell number was multiplied by peak volume (size) and this number was used to calculate volume of solvent to extract in. Cells were pelleted by centrifugation (400 RCF, 10 minutes, room temperature) at which medium was removed for YSI analysis. Cells were then washed twice with ice cold PBS (Calcium and Magnesium free: Thermo Fisher Scientific) with pulse centrifugation (12,000RCF, 15 seconds, 4° C.) used between and after washes. Cells were then extracted in LC-grade ACN:MeOH:H2O solvent (−20° C., 5:3:2) by disrupting the pellet by pipetting followed by a 5 second vortex. Finally, debris was pelleted by centrifugation (16,000RCF, 10 minutes, 4° C.), supernatant transferred to LC-MS glass vials that were stored at −80° C. until analysis.
The LC system composed of a ZIC-pHILIC column (SeQuant, 150×2.1 mm, 5 μm, Merck KGaA) with a ZIC-pHILIC guard column (SeQuant, 20×2.1 mm) with an UltiMate 3000 HPLC system (Thermo Fisher Scientific). The aqueous mobile-phase solvent was 20 mM ammonium carbonate-0.1% ammonium hydroxide solution and with acetonitrile being used for organic mobile phase. A linear biphasic LC gradient was conducted from 80% organic to 80% aqueous for 15 min for a total run time of 22 min. The column temperature was maintained at 45° C. flow rate set to 200 μL/min.
The MS used in this study was a qExactive Plus Orbitrap Mass Spectrometer (Thermo Fisher Scientific) operating in polarity switching mode. The MS set up was calibrated using a custom CALMIX in both ionization modes before analysis and a tune file targeted towards the lower m/z range was used. Full scan (MS1) data was acquired in both ionization modes in profile mode at 70,000 resolution (at m/z range 75-1000), an automatic gain control (AGC) target of 1×10^6 (max fill time of 250 ms), with spray voltages +4.5 kV (capillary +50V, tube: […], skimmer: +20V) and −3.5 kV (capillary −50V, tube: […], skimmer: −20V) and s-lens RF level of 50 for the front optics. The capillary temperature 375° C., probe temperature 50′C, sheath gas flow rate 25, auxiliary gas flow rate 15a.u. 15 and sweep gas flow rate of 1a.u.
(§4) The peak areas of different metabolites were determined using Tracefinder 4.1 software (Thermo Fisher Scientific). Metabolites were identified by accurate mass of the singly charged ion and by known retention times on the pHILIC column. A commercially available standard compound mix (Merck: MSMLS-1EA) had been analysed previously on our LC-MS system to determine accurate ion masses and retention times. The 13C labelling was determined by quantifying peak areas for the accurate mass of all isotopologues of each metabolite.
Two independent experiments were performed, data normalised to first sample in each experiment, processed through Autoplotter (56), samples as experiments, and normalised data as replicates. […] For MSDC-0160 treated samples a batch correction (to non-drug control) was used prior to analysis using Metabonalyst. Volcano plots were generated, and an FDR adjusted t-test threshold 0.1 was utilised. Note both fold changes and p-values are log transformed. Top-25 scoring metabolites are included in heatmap.

CML CD34+ cells [2] = test: 13C stable isotope tracing (glucose, glutamine, palmitate) in primary CML CD34+ cells; type: cell-based, human; conditions: nilotinib treatment, data not shown
Procedure: as §1, §3, §4
as §2, with “10%.” for “10%. To examine contribution to carbon pool we corrected contribution of each isotopologue by the number of carbons it contributes to a given metabolite, i.e., for glutamine contribution from m+5 is greater than m+3. Note that for cell line experiments standard deviation is shown.”

phospho-AMPK = conditions: previously shown (ref 42); cited from earlier work
CML CD34+ cells [3] = test: Patient-derived xenograft of CML CD34+ cells in NRG-W41 mice, bone marrow flow cytometry; type: in vivo, human; conditions: 4 weeks
Procedure: Treatment was given for 4 weeks. For treatment with asciminib (ABL001) plus MSDC-0160, twelve weeks following transplant, drug treatment was started with both asciminib (Fisher Scientific Cat #1642956) dosed at 10 mg/kg/day (5 mg/kg BID); oral gavage and MSDC-0160 (Apex Biotechnology: Cat #B3702) dosed at 30 mg/kg; oral gavage once daily. Treatment was given for 4 weeks. At the respective endpoints, bone marrow cells were collected. This was done by placing inverted cut leg bones into 0.5 mL Eppendorf tubes with holes at bottom. These in turn were placed within 1.5 mL Eppendorf tubes containing PBS, centrifuged (12,000 RCF, 20 seconds). Cells were stained (300 μl/test) with anti-mouse (APC-Cy7 BD Biosciences: Cat #557659, RRID: AB_396774, 1 μl), anti-human CD45 (FITC; BD Biosciences: Cat #555482, RRID: AB_395874, 10 μl), anti-human CD34 (APC; BD Biosciences: Cat #555824, RRID: AB_398614, 2 μl) and anti-human CD38 (PerCP; BioLegend: Cat #303520, RRID: AB_893313, 2 μl) antibodies for flow cytometry analysis as described above.

In the case of `COC(=O)C[C@](O)(CCCC(C)(C)O)C(=O)O[C@@H]1C(OC)=C[C@]23CCCN2CCc2cc4c(cc2[C@H]13)OCO4` [omacetaxine mepesuccinate], the “sensitisation of K562 to the drug by PC ablation, viability and CFC assays” value (K562 cells) was “not observed”.

In the case of `N#C/C(=C\c1cn(-c2ccccc2)c2ccccc12)C(=O)O` [UK-5099], the “labelled fractions in alpha-ketoglutarate (AKG) and AKG-derived glutamate” value (K562 CML cell line) was “reducing levels of all labelled fractions in these metabolites in a concentration-dependent manner” and the “glucose contribution to fraction of labelling” value (K562 CML cell line; data not shown) was “concentration-dependent reduction”.

In the case of `Cc1cn(-c2cc(NC(=O)c3ccc(C)c(Nc4nccc(-c5cccnc5)n4)c3)cc(C(F)(F)F)c2)cn1` [nilotinib], the total metabolite levels (CML CD34+ cells [1]) is listed as “reduction”, the “13C-glucose incorporation into TCA cycle metabolites” value (CML CD34+ cells [2]) is listed as “reduction” and the “phospho-AMPK in CD34+ CML cells” value (phospho-AMPK) is listed as “increase”.

With `O=C(Nc1ccc(OC(F)(F)Cl)cc1)c1cnc(N2CC[C@@H](O)C2)c(-c2ccn[nH]2)c1` [ABL-001] the “engraftment of human CML cells in bone marrow” value (CML CD34+ cells [3]; ABL-001 10 mg/kg/day (5 mg/kg BID), 12 weeks engraftment) was “variable increase in engraftment” and the “CD34+ cells in bone marrow” value (CML CD34+ cells [3]; ABL-001 10 mg/kg/day) was “not affected”.
